According to US5756291A, “Aptamers specific for biomolecules and methods of making” (priority 1995, dated 1998):
Several values for one entry are separate records, joined by “and”; a condition that tells them apart may be missing. Identical values can stand only once.

Legend:
thrombin [1] = experiment: Filter binding specificity assay (Table 11), thrombin; details: DNA about 1 nM
Procedure: (§1) Briefly, radiolabeled aptamer DNA at about a concentration of about 1 nM was incubated with the indicated protein for several minutes at room temperature, followed by filtration of the aptamer-protein mixture through a nitrocellulose filter. The filter was washed with 3 mL of selection buffer and then radioactivity bound to the filters was determined as a % of input radioactivity. Binding data is shown for both unselected 96-mer DNA and for two separate experiments with clone #29 96-mer. All proteins were tested at about 1M concentration except human serum albumin which was used at 100M.

Plasmin = experiment: Filter binding specificity assay (Table 11), plasmin; design: dose or concentration left out as unconfirmed
Procedure: as §1

human serum albumin = experiment: Filter binding specificity assay (Table 11), albumin; details: human serum albumin 100 µM; listed as Clone 29 DNA
Procedure: as §1

Kallikrein = experiment: Filter binding specificity assay (Table 11), kallikrein; details: Kallikrein about 1 µM
Procedure: as §1

Prothrombin = experiment: Filter binding specificity assay (Table 11), prothrombin; design: dose or concentration left out as unconfirmed; details: listed as Clone 29 DNA
Procedure: as §1

Chymotrypsin = experiment: Filter binding specificity assay (Table 11), chymotrypsin; details: Chymotrypsin about 1 µM
Procedure: as §1

Trypsin = experiment: Filter binding specificity assay (Table 11), trypsin; design: dose or concentration left out as unconfirmed
Procedure: as §1

TPA = experiment: Filter binding specificity assay (Table 11), TPA; details: TPA about 1 µM
Procedure: as §1

thrombin [2] = experiment: Nitrocellulose filter binding, dissociation constant for thrombin; design: species or system human
Procedure: Filter binding assays using aptamer DNA from 14 of the clones were used to determine the dissociation constants (KD) for thrombin as follows: Thrombin concentrations between […] and 1 nM were incubated at room temperature in selection buffer for 5 minutes in the presence of […] of radiolabeled 96-mer derived from cloned Round 5 aptamer DNA. After incubation, the thrombin and aptamer mixture was applied to nitrocellulose filters (0.2 micron, 2.4 cm diameter) that were pretreated with salmon sperm DNA (1 mg/ml DNA in selection buffer) and washed twice with 1 ml selection buffer. After application of thrombin mixture, the filters were washed three times with 1 ml selection buffer. The radioactivity retained on the filters was then determined. KD values for the individual clones ranged from 50 to >2000 nM.
One of these two clones (#17) and the original unselected pool was analyzed for thrombin binding by nitrocellulose filter assay described above using DNA labeled with ^32 P to permit analysis of thrombin binding characteristics. The labeled DNA was synthesized by PCR and contained 5-(1-pentynyl)-2'-deoxyuridine in order to retain the original selected DNA structures. The DNA was incubated with thrombin at various concentrations between 10 nM and 10M to obtain the KD values for thrombin binding. The KD of the unselected pool was […] while the KD of clone 17 was 400 nM. […]

thrombin [3] = experiment: Clotting time, thrombin-catalyzed conversion of fibrinogen to fibrin; type: biochemical; details: thrombin 10 nM
Procedure: Clotting time for the thrombin-catalyzed conversion of fibrinogen (2.0 mg/ml in selection buffer) to fibrin at 37 C. was measured using a precision coagulation timer apparatus (Becton-Dickinson, Cat. nos. 64015, 64019, 64020). Thrombin (10 nM) incubated with fibrinogen alone clotted in 40 sec, thrombin incubated with fibrinogen and P1 nuclease (Boehringer-Mannheim, Indianapolis, Ind.) clotted in 39 sec, thrombin incubated with fibrinogen and aptamer clone #5 (200 nM) clotted in 115 sec, and thrombin incubated with fibrinogen, clone #5 (200 nM) and […] clotted in 40 sec. All incubations were carried out at 37 C. using reagents prewarmed to 37 C. Aptamer DNA or, when present, P1 nuclease, was added to the fibrinogen solution prior to addition of thrombin.

ancrod = experiment: Ancrod fibrinogen clotting assay; type: biochemical
Procedure: The thrombin 21-mer ancrod assay was conducted as follows. Ancrod was suspended in sterile water at a concentration of 44 U/mL. 10 L ancrod solution was added to 95 L of selection buffer prewarmed to 37 C. 100 L of this mixture was transferred to the coagulation cup of the fibrometer described above, followed by addition of 200 L of fibrinogen and 20 L of 21-mer DNA (both prewarmed to 37 C). TE buffer pH 7.0 was used as a control lacking DNA. The control clot time was 25 seconds while the clot time in the presence of 500 nM 21-mer was 24 seconds and was 26 seconds in the presence of 33M 21-mer.

thrombin [4] = experiment: Prothrombin time test (PT) after intravenous aptamer in monkeys; type: in vivo, cynomologous monkeys; details: high dose infusion 0.5 mg/kg/min
Procedure: Two thrombin aptamers were administered to adult male cynomologous monkeys. Unsubstituted 15-mer DNA with the sequence 5' GGTTGGTGTGGTTGG 3' and an analog, 5' GGTTGGTGTGGTT*G*G 3', containing thioate internucleotide linkages at the indicated positions were used. Aptamer was delivered as an intravenous bolus or infusion and then blood samples were withdrawn at various times after delivery of the bolus or during and after infusion. The catheter was heparinized after the 10 minute timepoint. The animals were not systematically heparinized.
Thrombin inhibition was measured by a prothrombin time test (PT) using a commercially available kit, reagents and protocol (Sigma Diagnostics, St. Louis, catalog Nos. T 0263 and 870-3). Inhibition of thrombin was indicated by an increased clot time compared to the control in the PT test. Clot times were obtained by withdrawing a sample of blood, spinning out red cells and using the plasma in the PT test. Control thrombin PT clot time values were obtained several minutes prior to administration of aptamer. Briefly, the PT assay was conducted using 0.1 mL of monkey plasma prewarmed to 37 C. and 0.2 mL of a 1:1 mixture of thromboplastin (used according to manufacturers instructions) and CaCl2 (25 mM), also prewarmed to 37 C. Thrombin clot times were measured with a fibrometer as described above. […]

thrombin [5] = experiment: Thrombin inhibition Ki; type: biochemical; details: Table 7
Description: The binding affinity of the aptamers herein with respect to targets and other molecules is defined in terms of Kd. The value of this dissociation constant can be determined directly by well-known methods, and can be computed even for complex mixtures by methods such as those, for example, set forth in Caceci, M., et al., Byte (1984) 9:340-362. It has been observed, however, that for some small oligonucleotides, direct determination of Kd is difficult, and can lead to misleadingly high results. Under these circumstances, a competitive binding assay for the target molecule or other candidate substance may be conducted with respect to substances known to bind the target or candidate. The value of the concentration at which 50% inhibition occurs (Ki) is, under ideal conditions, equivalent to Kd. However, in no event can Ki be less than Kd. Thus, determination of Ki, in the alternative, sets a maximal value for the value of Kd. Under those circumstances where technical difficulties preclude accurate measurement of Kd, measurement of Ki can conveniently be substituted to provide an upper limit for Kd.
Independent verification of the Ki for the nonmodified 15-mer was made by determining the extent of thrombin inhibition with varying DNA concentration.

human blood = experiment: Extracorporeal hemodialysis circuit blood coagulation; details: heparin 1 U/mL
Procedure: A bolus of 15-mer DNA was delivered to human blood at 37 C. to give an aptamer concentration of 10M. The blood was contained in an extracorporeal hemodialysis circuit (Travenol, Model No. CA-90). Pressure proximal to the hemodialysis filter was monitored to determine the time after administration of aptamer that coagulation occurred. Blood coagulation was marked by a pressure increase from about 50 mm Hg observed with uncoagulated blood (blood flow rate 200 mL/min) to pressure of at least 400 mm Hg.

**Q.** With “5' CGGGGAGAGGTTGGTGTGGTTGGCAATGGCTAGAGTAGTGAC GTTTTCGCGGTGAGGTCC 3' [Clone #29]” as the substance, how does the “% Bound” value (thrombin [1]; Control, no protein) read?
**A.** 0%

**Q.** What about the “% Bound” value (thrombin [1]; Thrombin about 1 µM) of the same substance?
**A.** 59.0%

**Q.** What about the “% Bound” value (Plasmin) of the same substance?
**A.** 15.0%

**Q.** And the “% Bound” value (human serum albumin)?
**A.** 2.0% and < 0.5%

**Q.** And the “% Bound” value (Kallikrein)?
**A.** < 0.5%

**Q.** And the “% Bound” value (Prothrombin)?
**A.** 11.0% and 9.5%

**Q.** And the “% Bound” value (Chymotrypsin)?
**A.** < 0.5%

**Q.** What about the “% Bound” value (Trypsin) of the same substance?
**A.** < 0.5%

**Q.** What about the “% Bound” value (TPA) of the same substance?
**A.** < 0.5%

**Q.** And the Kd (thrombin [2])?
**A.** ~200 nM

**Q.** Which thrombin clotting time (thrombin [3]) does the source give for 5' GGGGGTT 3' [reference compound] here?
**A.** 26 s

**Q.** For 5' GGTTGGG 3', which thrombin clotting time (thrombin [3]) is on record?
**A.** 38 s

**Q.** “5' GGTTGGGCTGGTTGGGTTGGG 3' (chemistry not given here) [Compound 21-mer, 21-mer thrombin aptamer]” was tested. Which clot time (ancrod; 500 nM 21-mer) did it give?
**A.** 24 s

**Q.** What about the clot time (ancrod; 21-mer) of the same substance?
**A.** 26 s

**Q.** What does the source list for 5' GGTTGGTGTGGTT*G*G 3'?
**A.** PT clot time during infusion (thrombin [4]): 2.5 to 2.7 times the control value; Ki (thrombin [5]): 40 nM

**Q.** How did the Ki (thrombin [5]) turn out when “G*G*T*T*G*G*T*G*T*G*G*T*T*G*G: 15-mer with all thioate linkages” was run?
**A.** 280 nM

**Q.** For “GG(dU)TGGTGTGG(dU)TGG: 15-mer with uracil for thymine”, which Ki (thrombin [5]) is on record?
**A.** 80 nM

**Q.** With “GGTTGG(dU)G(dU)GGTTGG: 15-mer with uracil for thymine” as the substance, how does the Ki (thrombin [5]) read?
**A.** 15 nM

**Q.** “GGTTGGTGTGGTTGG#G#T: closely related 17-mer with MEA linkages” was tested. Which Ki (thrombin [5]) did it give?
**A.** 35 nM

**Q.** For “GGTTGGTGTGGTU'GG: 15-mer with 5-(1-pentynyl)uracil”, which Ki (thrombin [5]) is on record?
**A.** 20 nM

**Q.** How did the “time to blood coagulation in hemodialysis unit” value (human blood) turn out when heparin was run?
**A.** > 80 min
